{
  "source": "paper PMC5218480",
  "about": "(PLoS ONE, 2017)",
  "system": "MV-4-11 cells",
  "test": "Gene expression microarray analysis (Affymetrix PrimeView) and GSEA",
  "format": "cell-based, human",
  "parameters": "RFU PODN (11730768_x_at) / Fold change /veh PODN (11730768_x_at) / RFU LINC00158 (11744669_a_at) / Fold change /veh LINC00158 (11744669_a_at) / RFU DUSP10 (11751237_a_at) / Fold change /veh DUSP10 (11751237_a_at) / RFU ID3 (11757404_x_at) / Fold change /veh ID3 (11757404_x_at) / RFU PLEKHG5 (11737974_s_at) / Fold change /veh PLEKHG5 (11737974_s_at) / RFU LRRC4B (11730491_at) / Fold change /veh LRRC4B (11730491_at) / RFU GIMAP4 (11747438_a_at) / Fold change /veh GIMAP4 (11747438_a_at) / RFU KRT8 (11758183_x_at) / Fold change /veh KRT8 (11758183_x_at) / RFU CNN1 (11734310_a_at) / Fold change /veh CNN1 (11734310_a_at) / RFU VPS37D (11726825_at) / Fold change /veh VPS37D (11726825_at) / RFU C10orf10 (11716522_x_at) / Fold change /veh C10orf10 (11716522_x_at) / RFU KIR2DL2 /// KIR2DL4 /// KIR2DL5A /// KIR2DL5B /// KIR2DS1 /// KIR2DS2 /// KIR2DS3 /// KIR2DS4 /// KIR3DL3 /// KIR3DL3 /// KIR3DS1 (11738374_at) / Fold change /veh KIR2DL2 /// KIR2DL4 /// KIR2DL5A /// KIR2DL5B /// KIR2DS1 /// KIR2DS2 /// KIR2DS3 /// KIR2DS4 /// KIR3DL3 /// KIR3DL3 /// KIR3DS1 (11738374_at) / RFU C1QL1 (11718748_at) / Fold change /veh C1QL1 (11718748_at) / RFU TMPRSS4 (11747572_a_at) / Fold change /veh TMPRSS4 (11747572_a_at) / RFU HAMP (11756126_x_at) / Fold change /veh HAMP (11756126_x_at) / RFU RNFT2 (11725882_a_at) / Fold change /veh RNFT2 (11725882_a_at) / RFU NR4A2 (11747474_a_at) / Fold change /veh NR4A2 (11747474_a_at) / RFU ABCC12 (11746883_a_at) / Fold change /veh ABCC12 (11746883_a_at) / RFU TMEM136 (11760407_x_at) / Fold change /veh TMEM136 (11760407_x_at) / RFU CLDN22 /// WWC2 (11732394_at) / Fold change /veh CLDN22 /// WWC2 (11732394_at) / RFU HLA-DPB1 (11760878_x_at) / Fold change /veh HLA-DPB1 (11760878_x_at) / RFU SPINT1 (11716480_a_at) / Fold change /veh SPINT1 (11716480_a_at) / RFU GAP43 (11754022_s_at) / Fold change /veh GAP43 (11754022_s_at) / RFU A4GNT (11735810_at) / Fold change /veh A4GNT (11735810_at) / RFU PRB3 (11715151_x_at) / Fold change /veh PRB3 (11715151_x_at) / RFU TUBB4B (11761932_at) / Fold change /veh TUBB4B (11761932_at) / RFU CAPN14 (11732068_a_at) / Fold change /veh CAPN14 (11732068_a_at) / RFU TMCC2 (11721928_a_at) / Fold change /veh TMCC2 (11721928_a_at) / RFU IRGQ (11745062_a_at) / Fold change /veh IRGQ (11745062_a_at) / RFU FAM174B (11720279_a_at) / Fold change /veh FAM174B (11720279_a_at) / RFU TMPRSS4 (11748680_a_at) / Fold change /veh TMPRSS4 (11748680_a_at) / RFU FAM212B (11763350_a_at) / Fold change /veh FAM212B (11763350_a_at) / RFU PLEKHG5 (11743358_a_at) / Fold change /veh PLEKHG5 (11743358_a_at) / RFU ZSCAN30 (11745921_a_at) / Fold change /veh ZSCAN30 (11745921_a_at) / RFU CMKLR1 (11741424_a_at) / Fold change /veh CMKLR1 (11741424_a_at) / RFU LOC101060620 /// MAPK8IP1 (11723275_at) / Fold change /veh LOC101060620 /// MAPK8IP1 (11723275_at) / RFU SPTSSB (11747773_x_at) / Fold change /veh SPTSSB (11747773_x_at) / RFU PRSS12 (11739890_at) / Fold change /veh PRSS12 (11739890_at) / RFU BIN1 (11741810_x_at) / Fold change /veh BIN1 (11741810_x_at) / RFU WNT11 (11732464_a_at) / Fold change /veh WNT11 (11732464_a_at) / RFU C10orf10 (11716521_a_at) / Fold change /veh C10orf10 (11716521_a_at) / RFU C5orf56 (11738089_at) / Fold change /veh C5orf56 (11738089_at) / RFU CYB561 (11721691_x_at) / Fold change /veh CYB561 (11721691_x_at) / RFU ANKRD19P (11752326_a_at) / Fold change /veh ANKRD19P (11752326_a_at) / RFU OR2T12 /// OR2T33 /// OR2T8 (11738714_s_at) / Fold change /veh OR2T12 /// OR2T33 /// OR2T8 (11738714_s_at) / RFU VCAN (11748164_a_at) / Fold change /veh VCAN (11748164_a_at) / RFU JSRP1 (11732532_at) / Fold change /veh JSRP1 (11732532_at) / RFU KRTAP10-11 (11738290_x_at) / Fold change /veh KRTAP10-11 (11738290_x_at) / RFU MYO3A (11730013_a_at) / Fold change /veh MYO3A (11730013_a_at) / RFU EBF3 (11725865_a_at) / Fold change /veh EBF3 (11725865_a_at) / RFU CAMK2N1 (11719241_x_at) / Fold change /veh CAMK2N1 (11719241_x_at) / RFU C5orf56 (11738088_a_at) / Fold change /veh C5orf56 (11738088_a_at) / RFU OLFML3 (11715873_a_at) / Fold change /veh OLFML3 (11715873_a_at) / RFU LOC100653217 /// NTM (11731650_a_at) / Fold change /veh LOC100653217 /// NTM (11731650_a_at) / RFU MAPK11 (11762145_a_at) / Fold change /veh MAPK11 (11762145_a_at) / RFU FIZ1 (11724087_x_at) / Fold change /veh FIZ1 (11724087_x_at) / RFU OASL (11726364_x_at) / Fold change /veh OASL (11726364_x_at) / RFU SOX15 (11748057_x_at) / Fold change /veh SOX15 (11748057_x_at) / RFU CD79A (11719716_a_at) / Fold change /veh CD79A (11719716_a_at) / RFU HIST1H1D (11736915_at) / Fold change /veh HIST1H1D (11736915_at) / RFU CASKIN2 (11723855_a_at) / Fold change /veh CASKIN2 (11723855_a_at) / RFU LOC730098 (11760151_x_at) / Fold change /veh LOC730098 (11760151_x_at) / RFU OR4N2 (11742367_at) / Fold change /veh OR4N2 (11742367_at) / RFU PRRT2 (11749266_a_at) / Fold change /veh PRRT2 (11749266_a_at) / RFU SNX32 (11753110_a_at) / Fold change /veh SNX32 (11753110_a_at) / RFU CDHR5 (11726645_a_at) / Fold change /veh CDHR5 (11726645_a_at) / RFU RCAN1 (11760418_a_at) / Fold change /veh RCAN1 (11760418_a_at) / RFU FAM167A (11723789_a_at) / Fold change /veh FAM167A (11723789_a_at) / RFU FAM26E (11764081_at) / Fold change /veh FAM26E (11764081_at) / RFU ISYNA1 (11749810_s_at) / Fold change /veh ISYNA1 (11749810_s_at) / RFU ACY1 (11761880_at) / Fold change /veh ACY1 (11761880_at) / RFU 11764098_at / Fold change /veh 11764098_at / RFU SAMD14 (11745864_x_at) / Fold change /veh SAMD14 (11745864_x_at) / RFU NPB (11741838_a_at) / Fold change /veh NPB (11741838_a_at) / RFU TMPRSS6 (11731388_a_at) / Fold change /veh TMPRSS6 (11731388_a_at) / RFU KRTAP10-2 (11738614_at) / Fold change /veh KRTAP10-2 (11738614_at) / RFU ARHGAP8 /// PRR5-ARHGAP8 (11727945_x_at) / Fold change /veh ARHGAP8 /// PRR5-ARHGAP8 (11727945_x_at) / RFU KRTAP5-7 /// NADSYN1 (11734609_at) / Fold change /veh KRTAP5-7 /// NADSYN1 (11734609_at) / RFU RASL12 (11751679_a_at) / Fold change /veh RASL12 (11751679_a_at) / RFU CDKN2B (11736163_a_at) / Fold change /veh CDKN2B (11736163_a_at) / RFU PRF1 (11729649_at) / Fold change /veh PRF1 (11729649_at) / RFU, ZNF638 /// ZNF638-IT1 / Fold change vs veh, ZNF638 /// ZNF638-IT1 / RFU, PANK3 / Fold change vs veh, PANK3 / RFU, SH3YL1 / Fold change vs veh, SH3YL1 / RFU, ZEB2 / Fold change vs veh, ZEB2 / RFU, NRIP1 / Fold change vs veh, NRIP1 / RFU, PTTG1IP / Fold change vs veh, PTTG1IP / RFU, CAPN2 / Fold change vs veh, CAPN2 / RFU, MED14 / Fold change vs veh, MED14 / RFU, SNORA58 / Fold change vs veh, SNORA58 / RFU, C1orf63 / Fold change vs veh, C1orf63 / RFU, LRRFIP1 / Fold change vs veh, LRRFIP1 / RFU, NDUFAF7 / Fold change vs veh, NDUFAF7 / RFU, SLC12A2 / Fold change vs veh, SLC12A2 / RFU, IBTK / Fold change vs veh, IBTK / RFU, ESF1 / Fold change vs veh, ESF1 / Fold change vs veh, TMEM50B / RFU, TAOK1 / Fold change vs veh, TAOK1 / RFU, ACBD3 / Fold change vs veh, ACBD3 / RFU, TMA16 / Fold change vs veh, TMA16 / RFU, RWDD3 / Fold change vs veh, RWDD3 / RFU, BCAT1 / Fold change vs veh, BCAT1 / RFU, EDEM3 / Fold change vs veh, EDEM3 / RFU, TMEM33 / Fold change vs veh, TMEM33 / RFU, WDR75 / Fold change vs veh, WDR75 / RFU, AHCTF1 / Fold change vs veh, AHCTF1 / RFU, TFRC / Fold change vs veh, TFRC / RFU, ZDHHC17 / Fold change vs veh, ZDHHC17 / RFU, NOM1 / Fold change vs veh, NOM1 / RFU, ARL8B / Fold change vs veh, ARL8B / RFU, ZBTB11 / Fold change vs veh, ZBTB11 / RFU, TAMM41 / Fold change vs veh, TAMM41 / RFU, KIAA1704 /// LOC100996395 / Fold change vs veh, KIAA1704 /// LOC100996395 / RFU, ING1 / Fold change vs veh, ING1 / RFU, TRMT61B / Fold change vs veh, TRMT61B / RFU, FUBP3 / Fold change vs veh, FUBP3 / RFU, TP53 / Fold change vs veh, TP53 / RFU, TNKS2 / Fold change vs veh, TNKS2 / RFU, ZFP14 / Fold change vs veh, ZFP14 / RFU, ACTR2 / Fold change vs veh, ACTR2 / RFU, PPP3R1 / Fold change vs veh, PPP3R1 / RFU, PIK3R1 / Fold change vs veh, PIK3R1 / RFU, HNRNPA1 / Fold change vs veh, HNRNPA1 / RFU, RNF170 / Fold change vs veh, RNF170 / RFU, ZNF28 / Fold change vs veh, ZNF28 / RFU, RNGTT / Fold change vs veh, RNGTT / RFU, OGT / Fold change vs veh, OGT / RFU, BRD1 / Fold change vs veh, BRD1 / RFU, MARS / Fold change vs veh, MARS / RFU, ZNF655 / Fold change vs veh, ZNF655 / RFU, FAHD1 / Fold change vs veh, FAHD1 / RFU, BDP1 / Fold change vs veh, BDP1 / RFU, LRRCC1 / Fold change vs veh, LRRCC1 / RFU, ARID1A / Fold change vs veh, ARID1A / RFU, ZNF146 / Fold change vs veh, ZNF146 / RFU, ZNF330 / Fold change vs veh, ZNF330 / RFU, GPN3 / Fold change vs veh, GPN3 / RFU, C9orf123 / Fold change vs veh, C9orf123 / RFU, N4BP2L2 / Fold change vs veh, N4BP2L2 / RFU, ARFIP1 / Fold change vs veh, ARFIP1 / RFU, FAM179B / Fold change vs veh, FAM179B / RFU, BCL10 / Fold change vs veh, BCL10 / RFU, UHRF1BP1L / Fold change vs veh, UHRF1BP1L / RFU, BET1 / Fold change vs veh, BET1 / RFU, CNOT2 / Fold change vs veh, CNOT2 / RFU, ZNF268 / Fold change vs veh, ZNF268 / Fold change vs veh, ZNF507 / RFU, DGCR2 / Fold change vs veh, DGCR2 / RFU, WDSUB1 / Fold change vs veh, WDSUB1 / Fold change vs veh, HSP90B1 /// MIR3652 / RFU, ADSS / Fold change vs veh, ADSS / RFU, GK / Fold change vs veh, GK / RFU, ZNF148 / Fold change vs veh, ZNF148 / RFU, TAF9 / Fold change vs veh, TAF9 / RFU, SLC1A5 / Fold change vs veh, SLC1A5 / RFU, SLMO2 / Fold change vs veh, SLMO2 / RFU, ABCC4 / Fold change vs veh, ABCC4 / RFU, LOC101060439 /// RAP1B / Fold change vs veh, LOC101060439 /// RAP1B / RFU, RFX7 / Fold change vs veh, RFX7 / RFU, GTPBP10 / Fold change vs veh, GTPBP10 / RFU, CNEP1R1 / Fold change vs veh, CNEP1R1 / RFU, BIVM-ERCC5 /// ERCC5 / Fold change vs veh, BIVM-ERCC5 /// ERCC5 / RFU, ILF3 / Fold change vs veh, ILF3 / RFU 11762660_at / Fold change /veh 11762660_at / RFU VCAN (11757783_s_at) / Fold change /veh VCAN (11757783_s_at) / RFU DDX43 (11728927_at) / Fold change /veh DDX43 (11728927_at) / RFU KRT8 (11758188_x_at) / Fold change /veh KRT8 (11758188_x_at) / RFU NKD1 (11759106_at) / Fold change /veh NKD1 (11759106_at) / RFU SRD5A1 (11742802_a_at) / Fold change /veh SRD5A1 (11742802_a_at) / RFU TPSAB1 /// TPSB2 (11721975_s_at) / Fold change /veh TPSAB1 /// TPSB2 (11721975_s_at) / RFU GSTM3 (11746129_a_at) / Fold change /veh GSTM3 (11746129_a_at) / RFU IL23R (11737362_x_at) / Fold change /veh IL23R (11737362_x_at) / RFU TMEM51 (11727254_a_at) / Fold change /veh TMEM51 (11727254_a_at) / RFU PIWIL2 (11732686_x_at) / Fold change /veh PIWIL2 (11732686_x_at) / RFU ORM1 (11744905_x_at) / Fold change /veh ORM1 (11744905_x_at) / RFU CCDC152 (11743942_at) / Fold change /veh CCDC152 (11743942_at) / RFU ECM1 (11717891_a_at) / Fold change /veh ECM1 (11717891_a_at) / RFU IL23R (11748794_a_at) / Fold change /veh IL23R (11748794_a_at) / RFU TNFAIP8L3 (11732012_x_at) / Fold change /veh TNFAIP8L3 (11732012_x_at) / RFU MBOAT4 (11741988_at) / Fold change /veh MBOAT4 (11741988_at) / RFU 11764193_at / Fold change /veh 11764193_at / RFU TMEM53 (11763286_at) / Fold change /veh TMEM53 (11763286_at) / RFU MAGEB2 (11727129_at) / Fold change /veh MAGEB2 (11727129_at) / RFU TMEM200A (11744735_a_at) / Fold change /veh TMEM200A (11744735_a_at) / RFU CCDC152 (11751479_a_at) / Fold change /veh CCDC152 (11751479_a_at) / RFU FAM211A (11726209_a_at) / Fold change /veh FAM211A (11726209_a_at) / RFU RGS16 (11746705_a_at) / Fold change /veh RGS16 (11746705_a_at) / RFU VCAN (11755009_s_at) / Fold change /veh VCAN (11755009_s_at) / RFU RHOB (11743442_s_at) / Fold change /veh RHOB (11743442_s_at) / RFU RGS16 (11720943_a_at) / Fold change /veh RGS16 (11720943_a_at) / RFU RGS16 (11720944_at) / Fold change /veh RGS16 (11720944_at) / RFU, VPS4B / Fold change vs veh, VPS4B / RFU, CREB1 / Fold change vs veh, CREB1 / RFU, DNAJC13 / Fold change vs veh, DNAJC13 / RFU, GNAQ / Fold change vs veh, GNAQ / RFU, CDK5R1 / Fold change vs veh, CDK5R1 / RFU, ZRANB3 / Fold change vs veh, ZRANB3 / RFU, CUL4A / Fold change vs veh, CUL4A / RFU, CCNY / Fold change vs veh, CCNY / RFU, UFL1 / Fold change vs veh, UFL1 / RFU, COG3 / Fold change vs veh, COG3 / RFU, DIAPH2 / Fold change vs veh, DIAPH2 / RFU, SKA2 / Fold change vs veh, SKA2 / RFU, AFF3 / Fold change vs veh, AFF3 / RFU, LMF1 / Fold change vs veh, LMF1 / RFU, IPO11 / Fold change vs veh, IPO11 / RFU, DFFB / Fold change vs veh, DFFB / RFU, FOXP1 / Fold change vs veh, FOXP1 / RFU, CARD8 / Fold change vs veh, CARD8 / RFU, STRN3 / Fold change vs veh, STRN3 / RFU, ADK / Fold change vs veh, ADK / RFU, RASSF2 / Fold change vs veh, RASSF2 / RFU, WIPF1 / Fold change vs veh, WIPF1 / RFU, LARP1B / Fold change vs veh, LARP1B / RFU, RASA1 / Fold change vs veh, RASA1 / RFU, RB1 / Fold change vs veh, RB1 / RFU, PPFIA1 / Fold change vs veh, PPFIA1 / RFU, MAT2A / Fold change vs veh, MAT2A / RFU, CCT5 / Fold change vs veh, CCT5 / RFU, WDR92 / Fold change vs veh, WDR92 / RFU, CUX1 / Fold change vs veh, CUX1 / RFU, TTC7A / Fold change vs veh, TTC7A / RFU, TMEM135 / Fold change vs veh, TMEM135 / RFU, DEPTOR / Fold change vs veh, DEPTOR / RFU, CPM / Fold change vs veh, CPM / RFU, DNAJB6 / Fold change vs veh, DNAJB6 / RFU, CACNA2D3 / Fold change vs veh, CACNA2D3 / RFU, DTX4 / Fold change vs veh, DTX4 / RFU, TFCP2 / Fold change vs veh, TFCP2 / RFU, GMCL1 /// GMCL1P1 / Fold change vs veh, GMCL1 /// GMCL1P1 / RFU, AEBP2 / Fold change vs veh, AEBP2 / RFU, SNHG1 /// SNORD22 /// SNORD25 /// SNORD26 /// SNORD27 /// SNORD28 /// SNORD29 /// SNORD31 / Fold change vs veh, SNHG1 /// SNORD22 /// SNORD25 /// SNORD26 /// SNORD27 /// SNORD28 /// SNORD29 /// SNORD31 / Fold change (Aza/veh), C12orf56 (ProbeSet 11735607_a_at) / Fold change (ACY-1035/veh), C12orf56 (ProbeSet 11735607_a_at) / Fold change (Aza/veh), FGFR1OP (ProbeSet 11751329_s_at) / Fold change (ACY-1035/veh), FGFR1OP (ProbeSet 11751329_s_at) / Fold change (Aza/veh), VPS36 (ProbeSet 11739960_a_at) / Fold change (ACY-1035/veh), VPS36 (ProbeSet 11739960_a_at) / RFU SYPL1 (11715823_x_at) / Fold change /veh SYPL1 (11715823_x_at) / RFU IGFBP7 (11715501_s_at) / Fold change /veh IGFBP7 (11715501_s_at) / RFU REEP3 (11722064_at) / Fold change /veh REEP3 (11722064_at) / RFU IGLL1 (11728026_x_at) / Fold change /veh IGLL1 (11728026_x_at): dose or concentration left out as unconfirmed",
  "settings": "ProbeSet 11727827_x_at; LIST B",
  "data": [
    {"compound": "Nc1ncn([C@@H]2O[C@H](CO)[C@@H](O)[C@H]2O)c(=O)n1", "note": "[azacitidine]", "values": [
      {"measurement": "RFU, NDUFAF7", "result": 58.08, "unit": "RFU"}
    ]}
  ]
}
